Measured values published in patent US4137227A, “1-Alkyl-1,4-dihydro-4-oxo-7-triazenyl-3-quinolinecarboxylic acids” (Sterling Drug Inc., priority 1977, dated 1979).
Converted amounts (≈) assume the structure as drawn. Like-named read-outs stand apart in the source and are kept apart here.

What was measured:
[1] = test system: S. aureus (Smith); assay: Autotiter in vitro antibacterial test, S. aureus (Smith); format: cell-based; settings: Staphylococcus aureus, 18-20 hours at 37° C., read-out: minimal inhibitory concentration (MIC)
Procedure: (§1) The antibacterial activity of the compounds of formula I was determined using a modification of the Autotiter® method described by Goss et al. [Applied Microbiology 16 (9), 1414-1416 (1968)] in which a 1,000 mcg./ml. solution of the test compound is prepared. To the first cup of the Autotray® is added 0.1 ml. of the test solution. Activation of the Autotiter initiates a sequence of operations by which 0.05 ml. of the test compound solution is withdrawn from the cup by a Microtiter® transfer loop and diluted in 0.05 ml. of sterile water. Following this operation, 0.05 ml. of inoculated double-strength semisynthetic medium (glucose) is added automatically to each cup. The overall operation results in final drug concentrations ranging from 500 to 0.06 mcg./ml. in twofold decrements. The Autotray is incubated for 18-20 hours at 37° C. at which time the trays are examined visually for growth as evidenced by turbidity, and the concentration of the last sample in the series showing no growth (or no turbidity) is recorded as the minimal inhibitory concentration (MIC) in mcg./ml. The compounds were thus tested as solutions and found active in the range of 7.8 to 125 mcg./ml. (MIC) against one or more of various gram positive and gram negative bacteria including Staphylococcus aureus, Proteus mirabilis, Escherichia coli, Klebsiella pneumoniae and Streptococcus pyogenes.

[2] = test system: E. coli (Vogel); assay: Autotiter in vitro antibacterial test, E. coli (Vogel); format: cell-based; settings: Escherichia coli, 18-20 hours at 37° C., read-out: minimal inhibitory concentration (MIC)
Procedure: as §1

[3] = test system: Kleb. pneumoniae; assay: Autotiter in vitro antibacterial test, Kleb. pneumoniae; format: cell-based; settings: Klebsiella pneumoniae, 18-20 hours at 37° C., read-out: minimal inhibitory concentration (MIC)
Procedure: as §1

[4] = test system: Strep. pyogens; assay: Autotiter in vitro antibacterial test, Strep. pyogens; format: cell-based; settings: Streptococcus pyogenes, 18-20 hours at 37° C., read-out: minimal inhibitory concentration (MIC)
Procedure: as §1

[5] = test system: Prot. mirabilis; assay: Autotiter in vitro antibacterial test, Prot. mirabilis; format: cell-based; settings: Proteus mirabilis, 18-20 hours at 37° C., read-out: minimal inhibitory concentration (MIC)
Procedure: as §1

[6] = test system: E. coli (1100/B22); assay: Autotiter in vitro antibacterial test, E. coli (1100/B22); format: cell-based; settings: Escherichia coli, 18-20 hours at 37° C., read-out: minimal inhibitory concentration (MIC)
Procedure: as §1

[7] = test system: P-388 tumor; settings: cited from earlier work; for life-span of mice bearing i.p. implanted P-388 tumor: control animals 10 days
[8] = test system: L-1210 leukemia; settings: 30 to 40 mg/kg dosage; cited from earlier work
[9] = cited from earlier work

Row | SMILES | MIC [1] | MIC [2] | MIC [3] | MIC [4] | MIC [5] | activity against P-388 tumor (in words) ([7]; up to 40 mg/kg) | other results
1 | CCn1cc(C(=O)O)c(=O)c2ccc(N=NN(C)C)cc21 [Example E-1, 1-Ethyl-1,4-dihydro-7-(3,3-dimethyl-1-triazenyl)-4-oxo-3-quinolinecarboxylic Acid] | 15.6 µg/mL (≈ 54.1 µM) | 7.8 µg/mL (≈ 27.1 µM) | 500 µg/mL (≈ 1730 µM) | 125 µg/mL (≈ 434 µM) |  |  | 
2 | CCCn1cc(C(=O)O)c(=O)c2ccc(N=NN(C)C)cc21 [Example E-3, 1,4-Dihydro-7-(3,3-dimethyl-1-triazenyl)-4-oxo-1-n-propyl-3-quinolinecarboxylic Acid] | > 62.5 µg/mL | > 62.5 µg/mL | > 125 µg/mL | 31.3 µg/mL (≈ 104 µM) | > 125 µg/mL |  | MIC [6]: > 62.5 µg/mL
3 | CN(C)N=Nc1ccnc2cc(Br)ccc12 [Example 7-bromo] |  |  |  |  |  | inactive | 
4 | CN(C)N=Nc1ccc2c(=O)c(C(=O)O)cn(C)c2c1 [Example E-2, 1,4-Dihydro-1-methyl-7-(3,3-dimethyl-1-triazenyl)-4-oxo-3-quinolinecarboxylic Acid] | 62.5 µg/mL (≈ 228 µM) | 125 µg/mL (≈ 456 µM) | > 125 µg/mL | 62.5 µg/mL (≈ 228 µM) | > 125 µg/mL |  | MIC [6]: > 250 µg/mL
5 | CN(C)N=Nc1ccnc2c(Cl)cccc12 [Example 8-chloro, 8-chloro-4-(3,3-dimethyl-1-triazeno)quinoline] |  |  |  |  |  |  | activity against P-388 tumor (in words) ([7]; i.p. dosage of 30 mg/kg): active; life-span of mice bearing i.p. implanted P-388 tumor ([7]; i.p. dosage of 30 mg/kg): 16 to 18 days; activity against mouse L-1210 leukemia (in words) [8]: active; increase of life-span, mouse L-1210 leukemia [8]: 65%
6 | CCn1cc(C(=O)O)c(=O)c2ccc(N=NN3CCN(C)CC3)cc21 [Example E-5, 1-Ethyl-1,4-dihydro-7-[(4-methyl-1-piperazinyl)azo]-4-oxo-3-quinolinecarboxylic Acid] | 31.3 µg/mL (≈ 91.2 µM) | 15.6 µg/mL (≈ 45.4 µM) | 62.5 µg/mL (≈ 182 µM) | 125 µg/mL (≈ 364 µM) | 125 µg/mL (≈ 364 µM) |  | 
7 | CCCn1cc(C(=O)O)c(=O)c2ccc(N=NN(CC)CC)cc21 [Example E-4, 7-(3,3Diethyl-1-triazenyl)-1,4-dihydro-4-oxo-1-n-propyl-3-quinolinecarboxylic Acid] | 62.5 µg/mL (≈ 189 µM) | > 500 µg/mL | > 500 µg/mL | 62.5 µg/mL (≈ 189 µM) | > 500 µg/mL |  | MIC [6]: > 500 µg/mL
8 | CN(C)N=Nc1ccnc2ccc(Cl)cc12 [Example 6-chloro, 6-chloro-4-(3,3-dimethyl-1-triazeno)quinoline] |  |  |  |  |  |  | activity against P-388 tumor (in words) ([7]; i.p. dosage of 30 mg/kg): active; life-span of mice bearing i.p. implanted P-388 tumor ([7]; i.p. dosage of 30 mg/kg): 16 to 18 days
9 | CN(C)N=Nc1ccnc2ccc(Br)cc12 [Example 6-bromo] |  |  |  |  |  | inactive | activity against mouse L-1210 leukemia (in words) [8]: active; increase of life-span, mouse L-1210 leukemia [8]: 50%
10 | CN(C)N=Nc1ccnc2c(Br)cccc12 [Example 8-bromo] |  |  |  |  |  | inactive | activity against mouse L-1210 leukemia (in words) [8]: active; increase of life-span, mouse L-1210 leukemia [8]: 65%
11 | CN(C)N=Nc1cnc2ccccc2c1 [3,3-dimethyl-1-(3'-quinolinyl)triazene] |  |  |  |  |  |  | stability of crude product on drying ([9]; allowed to dry while crude): decomposes in a puff of smoke; stability of crude product ([9]; crude product): Crude product is very unstable; stability during microanalysis ([9]; during microanalysis): Explodes during microanalysis; stability of purified material on storage ([9]; purified material, on storage): darkens rapidly, but less dramatically, on storage
12 | CN(C)N=Nc1ccnc2cc(Cl)ccc12 [Example 7-chloro, 7-chloro-4-(3,3-dimethyl-1-triazeno)quinoline] |  |  |  |  |  |  | activity against P-388 tumor (in words) ([7]; i.p. dosage of 30 mg/kg): active; life-span of mice bearing i.p. implanted P-388 tumor ([7]; i.p. dosage of 30 mg/kg): 16 to 18 days
13 | CN(C)N=Nc1ccnc2ccc(I)cc12 [Example 6-iodo] |  |  |  |  |  | inactive | 
